Laboratory results reported in patent publication US20120196824A1, “THERAPEUTIC AGENT FOR CEREBRAL INFARCTION” (MITSUBISHI TANABE PHARMA CORPORATION, priority 2009, published 2012).
Counter-ions that a name gives are not always drawn.

Assays:
homocysteine synthesis = experiment: Measurement of homocysteine synthesis inhibitory activity in vivo (methionine-loaded mouse, plasma homocysteine); conditions: dose of 10 mg/kg, oral, BALB/c mouse; methionine water 1 hr later; plasma 30 min after; read-out: activity (homocysteine synthesis inhibitory rate)
Description: A sample was orally administered to BALB/c mouse and, 1 hr later, methionine water (50 g/L) was orally administered at a proportion of 10 ml/kg. 30 min later, blood samples were collected with heparin from the abdominal vein and plasma was obtained. The plasma homocysteine concentration was measured by treating the plasma with tributylphosphine, removing protein with 10% trichloroacetic acid (TCA), fluorescent labeling the supernatant with 4-fluoro-7-sulfobenzofurazan ammonium salt (SBD-F) under alkali conditions, and quantifying by HPLC. The homocysteine synthesis inhibitory rate of the sample was determined with the difference in the homocysteine value between methionine water-loaded animal and methionine water-unloaded animal as 100%. The detailed conditions of HPLC were as follows.
column used: Wakopak^R HandyODS 150*4.6 mm (Wako Pure Chemical Industries, Ltd.) elution condition: 1.0 ml/min elution solvent: 0.1M phosphate buffer (pH 6.0) 2% methanol wavelength: ex 385 nm em 515 nm

[1] = molecular target: T1, Human-recombinant-S-Adenosyl-L-Homocysteine Hydrolase (Homo sapiens, UniProt P23526); experiment: Measurement of enzyme inhibitory activity (hydrolysis of S-Adenosyl-L-Homocysteine, HPLC); assay type: biochemical; conditions: S-Adenosyl-L-Homocysteine 10 μM, pH 7.2, 37° C., 15 min
T1 construct: purchased Diazyme Laboratories
T1 sequence (P23526 whole entry): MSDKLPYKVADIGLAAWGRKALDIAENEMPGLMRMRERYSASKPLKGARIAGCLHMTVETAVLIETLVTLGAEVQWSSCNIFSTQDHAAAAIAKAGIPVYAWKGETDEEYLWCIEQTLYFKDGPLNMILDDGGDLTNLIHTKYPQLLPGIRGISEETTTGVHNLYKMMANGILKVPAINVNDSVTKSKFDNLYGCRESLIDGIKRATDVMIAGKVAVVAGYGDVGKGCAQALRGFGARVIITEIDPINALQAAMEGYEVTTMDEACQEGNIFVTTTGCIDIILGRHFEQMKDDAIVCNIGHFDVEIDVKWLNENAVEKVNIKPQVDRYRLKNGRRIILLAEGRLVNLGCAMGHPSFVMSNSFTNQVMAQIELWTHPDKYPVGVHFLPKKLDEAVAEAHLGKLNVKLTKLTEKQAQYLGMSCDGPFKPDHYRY
Description: The enzyme inhibitory activity of the compounds of the Examples was measured using the hydrolysis activity of S-Adenosyl-L-Homocysteine as an index. The measurement method was modification of the method of Henry H. Richards et al. (J. Biol. Chem. 253, 4476-4480, 1978). That is, S-Adenosyl-L-Homocysteine (10 μM) and Adenosine Deaminase (Roche) (4 units) were added to 50 mM phosphate buffer (pH 7.2, containing 1 mM EDTA) with the total amount being 200 μl, and to the solution were added a test substance and then Human-recombinant-S-Adenosyl-L-Homocysteine Hydrolase (50 ng, Diazyme Laboratories) to start the reaction, and the mixture was incubated at 37° C. for 15 min. The reaction was quenched by the addition of 1N aqueous perchloric solution (20 μl), and the mixture was centrifuged under the conditions of 10000 rpm, 5 min, 4° C. The supernatant was collected, and the amount of S-Adenosyl-L-Homocysteine after the reaction was quantified by HPLC. The column used was a reversed-phase column. The detailed conditions of HPLC were as follows.
column used: Wakopak^R HandyODS 150*4.6 mm (Wako Pure Chemical Industries, Ltd.) elution condition: 1.0 ml/min elution solvent: 0.1M acetate buffer (pH 4.0) containing 10 mM 1-heptanesulfonic acid containing 4% acetonitrile wavelength: 258 nm (UV) The inhibitory rate was determined with the amount of decrease in S-Adenosyl-L-Homocysteine before and after the reaction without using the test substance as 100%.
Inhibitory rate (%)={(amount of decrease of S-Adenosyl-L-Homocysteine in the presence of test substance)/(amount of decrease of S-Adenosyl-L-Homocysteine in the absence of test substance)}×100

| SMILES | inhibition in vivo at 10 mg/kg (homocysteine synthesis) [%] | IC50 [1] [µM] |
| --- | --- | --- |
| CCNCCNC(=O)CN(CC(=O)N(C)N1Cc2ccc(F)cc2C1)c1cc2cn(CC(F)F)nc2cc1C [Example 254, N^2-[2-(2,2-difluoroethyl)-6-methyl-2H-indazol-5-yl]-N^2-{2-[(5-fluoro-1,3-dihydro-2H-isoindol-2-yl)(methyl)amino]-2-oxoethyl}-N^1-[2-(ethylamino)ethyl]glycinamide hydrochloride] | 20 to 40 | – |
| Cc1ccc(-c2nn(C)c(=O)o2)cc1N(CC(=O)NCCNC(C)C)CC(=O)N(C)N1Cc2ccccc2C1 [Example 88, N^2-{2-[1,3-dihydro-2H-isoindol-2-yl(methyl)amino]-2-oxoethyl}-N^2-[2-methyl-5-(4-methyl-5-oxo-4,5-dihydro-1,3,4-oxadiazol-2-yl)phenyl]-N^1-[2-(isopropylamino)ethyl]glycinamide] | 20 to 40 | 0.043 |
| Cc1cc2c(C)noc2cc1N(CC(=O)NCCNC(C)C)CC(=O)N(C)N1Cc2ccccc2C1 [Example 184, N^2-{2-[1,3-dihydro-2H-isoindol-2-yl(methyl)amino]-2-oxoethyl}-N^2-(3,5-dimethyl-1,2-benzisoxazol-6-yl)-N^1-[2-(isopropylamino)ethyl]glycinamide] | ≥ 40 | 0.037 |
| CCNCCNC(=O)CN(CC(=O)N(C)N1Cc2ccc(OC)cc2C1)c1cc(-c2noc(C)n2)ccc1C [Example 24, N^2-{2-[(5-methoxy-1,3-dihydro-2H-isoindol-2-yl)(methyl)amino]-2-oxoethyl}-N^2-[2-methyl-5-(5-methyl-1,2,4-oxadiazol-3-yl)phenyl]-N^1-[2-(ethylamino)ethyl]glycinamide] | 20 to 40 | 0.046 |
| CCNCCNC(=O)CN(CC(=O)N(C)N1Cc2ccc(F)cc2C1)c1cc(-c2noc(CO)n2)ccc1C [Example 292, N^2-{2-[(5-fluoro-1,3-dihydro-2H-isoindol-2-yl)(methyl)amino]-2-oxoethyl}-N^2-{5-[5-(hydroxymethyl)-1,2,4-oxadiazol-3-yl]-2-methylphenyl}-N^1-[2-(ethylamino)ethyl]glycinamide hydrochloride] | 20 to 40 | – |
| CCNCCNC(=O)CN(CC(=O)N(C)N1Cc2ccccc2C1)c1cc(C(C)=O)ccc1C [57 (2HCl salt)] | ≥ 40 | – |
| CCNCCNC(=O)CN(CC(=O)N(C)N1Cc2ccccc2C1)c1cc(-c2nn(CC)c(=O)o2)ccc1C [Example 92, N^2-{2-[1,3-dihydro-2H-isoindol-2-yl(methyl)amino]-2-oxoethyl}-N^2-[5-(4-ethyl-5-oxo-4,5-dihydro-1,3,4-oxadiazol-2-yl)-2-methylphenyl]-N^1-[2-(ethylamino)ethyl]glycinamide] | ≥ 40 | 0.048 |
| CCNCCNC(=O)CN(CC(=O)N(C)N1Cc2ccccc2C1)c1cc(-c2nn(C)c(=O)o2)ccc1C [Example 89, N^2-{2-[1,3-dihydro-2H-isoindol-2-yl(methyl)amino]-2-oxoethyl}-N^2-[2-methyl-5-(4-methyl-5-oxo-4,5-dihydro-1,3,4-oxadiazol-2-yl)phenyl]-N^1-[2-(ethylamino)ethyl]glycinamide] | 20 to 40 | 0.053 |
| CCNCCNC(=O)CN(CC(=O)N(C)N1Cc2ccccc2C1)c1cc2cnn(C)c2cc1C [Example 241, N^2-{2-[1,3-dihydro-2H-isoindol-2-yl(methyl)amino]-2-oxoethyl}-N^2-(1,6-dimethyl-1H-indazol-5-yl)-N^1-[2-(ethylamino)ethyl]glycinamide hydrochloride] | ≥ 40 | 0.009 |
| CCN1C(=O)CCc2cc(N(CC(=O)NCCNC(C)C)CC(=O)N(C)N3Cc4ccccc4C3)c(C)cc21 [Example 176, N^2-{2-[1,3-dihydro-2H-isoindol-2-yl(methyl)amino]-2-oxoethyl}-N^2-(1-ethyl-7-methyl-2-oxo-1,2,3,4-tetrahydroquinolin-6-yl)-N^1-[2-(isopropylamino)ethyl]glycinamide] | ≥ 40 | 0.063 |
| CCNCCNC(=O)CN(CC(=O)N(C)N1Cc2ccc(F)cc2C1)c1cc2cn(C)nc2cc1C [Example 245, N^2-(2,6-dimethyl-2H-indazol-5-yl)-N^2-{2-[(5-fluoro-1,3-dihydro-2H-isoindol-2-yl)(methyl)amino]-2-oxoethyl}-N^1-[2-(ethylamino)ethyl]glycinamide hydrochloride] | 20 to 40 | – |
| Cc1nc(-c2ccc(N(CC(=O)NCCNC(C)C)CC(=O)N(C)N3Cc4ccccc4C3)c(C)c2)no1 [Example 64, N^2-{2-[1,3-dihydro-2H-isoindol-2-yl(methyl)amino]-2-oxoethyl}-N^2-[2-methyl-4-(5-methyl-1,2,4-oxadiazol-3-yl)phenyl]-N^1-[2-(isopropylamino)ethyl]glycinamide] | ≥ 40 | 0.103 |
| CCNCCNC(=O)CN(CC(=O)N(C)N1Cc2ccccc2C1)c1ccc(-c2nc(C)no2)cc1C [Example 229, N^2-{2-[1,3-dihydro-2H-isoindol-2-yl(methyl)amino]-2-oxoethyl}-N^2-[2-methyl-4-(3-methyl-1,2,4-oxadiazol-5-yl)phenyl]-N^1-[2-(ethylamino)ethyl]glycinamide] | ≥ 40 | 0.035 |
| Cc1nc(-c2ccc(C)c(N(CC(=O)NCCNC(C)C)CC(=O)N(C)N3Cc4ccc(F)cc4C3)c2)no1 [Example 21, N^2-{2-[(5-fluoro-1,3-dihydro-2H-isoindol-2-yl)(methyl)amino]-2-oxoethyl}-N^2-[2-methyl-5-(5-methyl-1,2,4-oxadiazol-3-yl)phenyl]-N^1-[2-(isopropylamino)ethyl]glycinamide] | ≥ 40 | 0.089 |
| CCNCCNC(=O)CN(CC(=O)N(C)N1Cc2ccccc2C1)c1cc(C#N)ccc1C [Example 2, N^2-(5-cyano-2-methylphenyl)-N^2-{2-[1,3-dihydro-2H-isoindol-2-yl(methyl)amino]-2-oxoethyl}-N^1-[2-(ethylamino)ethyl]glycinamide dihydrochloride] | ≥ 40 | 0.092 |
| CCNCCNC(=O)CN(CC(=O)N(C)N1Cc2ccc(F)cc2C1)c1cc2nn(CC(F)F)cc2cc1C [Example 268, N^2-[2-(2,2-difluoroethyl)-5-methyl-2H-indazol-6-yl]-N^2-{2-[(5-fluoro-1,3-dihydro-2H-isoindol-2-yl)(methyl)amino]-2-oxoethyl}-N^1-[2-(ethylamino)ethyl]glycinamide hydrochloride] | < 20 | – |
| Cc1ccc(C#N)cc1N(CC(=O)NCCNC(C)C)CC(=O)N(C)N1Cc2ccccc2C1 [Example 1, N^2-(5-cyano-2-methylphenyl)-N^2-{2-[1,3-dihydro-2H-isoindol-2-yl(methyl)amino]-2-oxoethyl}-N^1-[2-(isopropylamino)ethyl]glycinamide dihydrochloride] | ≥ 40 | 0.068 |
| CCNCCNC(=O)CN(CC(=O)N(C)N1Cc2ccccc2C1)c1ccc(-c2nc(C(=O)N(C)C)cs2)cc1C [Example 304, N^2-{2-[1,3-dihydro-2H-isoindol-2-yl(methyl)amino]-2-oxoethyl}-N^2-[4-{4-[(dimethylamino)carbonyl]-1,3-thiazol-2-yl}-2-methylphenyl]-N^1-[2-(ethylamino)ethyl]glycinamide dihydrochloride] | ≥ 40 | – |
| CCNCCNC(=O)CN(CC(=O)N(C)N1Cc2ccccc2C1)c1cc2onc(C)c2cc1C [Example 185, N^2-{2-[1,3-dihydro-2H-isoindol-2-yl(methyl)amino]-2-oxoethyl}-N^2-(3,5-dimethyl-1,2-benzisoxazol-6-yl)-N^1-[2-(ethylamino)ethyl]glycinamide] | ≥ 40 | 0.008 |
